Test results published in patent publication US7935723B2, “Use of organic compounds” (Novartis Pharma AG, priority 2004, dated 2011).

Assays:
[1] = tested on: patients with Type 2 diabetes; test: Clinical study: safety and tolerability, study completion; assay type: in vivo, human; settings: 52 weeks, in combination with metformin
Description: Safety assessments consist of monitoring and recording all non-serious and serious adverse events (SAE), the regular monitoring of hematology, blood chemistry and urinalysis values, regular measurement of vital signs, the performance of physical examinations and body weight measurements. The assessment of safety is based mainly on the frequency of adverse events and on the number of laboratory values that fall outside of pre-determined ranges. Other safety data (e.g. vital signs) will be considered as appropriate.

[2] = tested on: patients with Type 2 diabetes; test: Clinical study (12-week core + 40-week extension): HbA1c in patients with Type 2 diabetes on metformin; assay type: in vivo, human; settings: over one year
Protocol: This is a 40-week extension to core study, a 12-week randomized, parallel group, multi-center, placebo-controlled trial in patients with Type 2 diabetes who are already receiving metformin at a stable dosage of 1500-3000 mg daily. Patients treated with placebo, LAF237 50 mg OD (omnia die/once a day) in addition to metformin during the core study and maintained their treatment regimen in the extension. […] All patients are randomized to receive either placebo or LAF237 (50 mg) once dally for 52 weeks in addition to metformin at an unchanged dosage. During the 4-week run-in period, all patients receive LAF237 placebo tablets and are assessed for inclusion in the study. Patients meeting the inclusion criteria at the Baseline visit receives randomized treatment once daily for 52 weeks. The total study duration for each patient is 56 weeks. Throughout the study, patients are required to maintain their prior diet and exercise habits and to continue to take metformin at an unchanged dosage. […] This is measured by using Tosoh ion exchange High Performance Liquid Chromotography (HPLC). Primus Affinity HPLC is used as a back-up method if hemoglobin variants or hemoglobin degradation peaks are observed. The primary efficacy variable is change from baseline in HbA1c at the end of the study. […]

N#C[C@@H]1CCCN1C(=O)CNC12CC3CC(CC(O)(C3)C1)C2 [LAF237, (S)-1-[(3-hydroxy-1-adamantyl)amino]acetyl-2-cyano-pyrrolidine] was tested. Which tolerability [1] did it give?
The tolerability was “well tolerated”.

And the “course of HbA1c levels (in words)” value [2]?
Its value is “decreased significantly”.
